molecular target: ROCK2 (Homo sapiens, UniProt O75116); experiment: ROCK assay: phosphorylation of FITC peptide substrate, LABCHIP 3000 mobility shift; format: biochemical; details: 5 μM ATP, 1.5 μM peptide substrate; read-out: ROCK2 Activity (ROCK IC50 range)
Outline: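 Rho kinase variant phosphorylates 1.5 μM FITC-AHA-AKRRRLSSLRA-OH with 5 μM ATP in 20 mM HEPES pH 7.5, 20 mM MgCl2, 0.015% Brij-35, 4 mM DTT, DMSO <2%. EDTA stops the reaction, and phospho and non-phospho peptides are resolved by LabChip 3000 mobility shift. IC50 from dose-response curve fit.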

Chain of ROCK2 (O75116 whole entry, species assumed): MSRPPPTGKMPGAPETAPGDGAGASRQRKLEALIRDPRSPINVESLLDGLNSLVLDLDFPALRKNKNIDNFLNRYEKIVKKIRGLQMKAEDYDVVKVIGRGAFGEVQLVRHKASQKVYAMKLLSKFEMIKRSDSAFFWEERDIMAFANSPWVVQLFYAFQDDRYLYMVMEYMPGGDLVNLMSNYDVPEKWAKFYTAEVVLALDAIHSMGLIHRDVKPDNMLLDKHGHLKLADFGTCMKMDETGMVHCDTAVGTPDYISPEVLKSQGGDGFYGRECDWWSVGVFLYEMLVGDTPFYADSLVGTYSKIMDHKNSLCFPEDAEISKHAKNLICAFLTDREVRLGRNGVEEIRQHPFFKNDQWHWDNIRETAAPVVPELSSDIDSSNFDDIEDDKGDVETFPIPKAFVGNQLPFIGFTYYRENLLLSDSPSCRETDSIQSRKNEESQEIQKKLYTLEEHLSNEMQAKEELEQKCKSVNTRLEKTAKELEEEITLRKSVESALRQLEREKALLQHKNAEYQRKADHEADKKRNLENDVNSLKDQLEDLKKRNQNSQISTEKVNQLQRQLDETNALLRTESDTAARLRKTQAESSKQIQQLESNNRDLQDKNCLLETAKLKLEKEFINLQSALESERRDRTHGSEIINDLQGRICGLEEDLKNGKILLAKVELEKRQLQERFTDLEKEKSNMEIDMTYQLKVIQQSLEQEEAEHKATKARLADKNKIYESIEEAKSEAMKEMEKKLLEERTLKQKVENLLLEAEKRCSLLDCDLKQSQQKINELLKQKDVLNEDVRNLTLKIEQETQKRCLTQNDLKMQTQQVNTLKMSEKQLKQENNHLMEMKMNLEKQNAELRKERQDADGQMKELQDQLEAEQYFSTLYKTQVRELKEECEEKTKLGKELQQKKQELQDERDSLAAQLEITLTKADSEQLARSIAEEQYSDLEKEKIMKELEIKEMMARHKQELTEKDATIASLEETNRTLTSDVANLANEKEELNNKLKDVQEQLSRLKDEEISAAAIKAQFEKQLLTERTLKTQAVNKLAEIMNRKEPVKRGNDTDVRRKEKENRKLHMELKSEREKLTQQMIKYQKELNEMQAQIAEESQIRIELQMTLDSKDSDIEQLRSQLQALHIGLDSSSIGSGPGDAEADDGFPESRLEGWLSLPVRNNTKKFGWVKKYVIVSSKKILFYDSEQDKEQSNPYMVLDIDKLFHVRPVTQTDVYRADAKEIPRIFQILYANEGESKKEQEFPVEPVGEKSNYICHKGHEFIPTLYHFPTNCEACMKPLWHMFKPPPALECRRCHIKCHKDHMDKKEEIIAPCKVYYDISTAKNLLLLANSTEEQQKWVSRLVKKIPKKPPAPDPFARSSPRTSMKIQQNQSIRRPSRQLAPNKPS

Row | Structure (SMILES) | IC50 [nM]
1 | CC(C)(O)Cn1nc(C(=O)NC2CC3(C2)CC(c2n[nH]c(=O)c4ccccc24)C3)c2ccc(-c3ccc(Cl)cc3)cc21 (stereo not drawn) [Example 144, 6-(4-chlorophenyl)-1-(2-hydroxy-2-methylpropyl)-N-((αR)-6-(4-oxo-3,4-dihydrophthalazin-1-yl)spiro[3.3]heptan-2-yl)-1H-indazole-3-carboxamide] | 5.1 to 15
2 | Cn1ccc(-c2ccc3c(C(=O)NC4CC5(C4)CC(c4n[nH]c(=O)c6ccccc46)C5)nn(CC(C)(C)O)c3c2)n1 (stereo not drawn) [Example 145, 1-(2-hydroxy-2-methylpropyl)-6-(1-methyl-1H-pyrazol-3-yl)-N-((αR)-6-(4-oxo-3,4-dihydrophthalazin-1-yl)spiro[3.3]heptan-2-yl)-1H-indazole-3-carboxamide] | 2.01 to 5
3 | Cn1nccc1-c1ccc2c(C(=O)NC3CC4(C3)CC(c3n[nH]c(=O)c5ccccc35)C4)nn(CC(C)(C)O)c2c1 (stereo not drawn) [Example 146, 1-(2-hydroxy-2-methylpropyl)-6-(1-methyl-1H-pyrazol-5-yl)-N-((αR)-6-(4-oxo-3,4-dihydrophthalazin-1-yl)spiro[3.3]heptan-2-yl)-1H-indazole-3-carboxamide] | 2.01 to 5
4 | Cn1cc(-c2ccc3c(C(=O)NC4CC5(C4)CC(c4n[nH]c(=O)c6ccccc46)C5)nn(CC(C)(C)O)c3c2)cn1 (stereo not drawn) [Example 147, 1-(2-hydroyx-2-methylpropyl)-6-(1-methyl-1H-pyrazol-4-yl)-N-((αR)-6-(4-oxo-3,4-dihydrophthalazin-1-yl)spiro[3.3]heptan-2-yl)-1H-indazole-3-carboxamide] | 2.01 to 5
5 | CC(C)(O)Cn1nc(C(=O)NC2CC3(C2)CC(c2n[nH]c(=O)c4ccccc24)C3)c2ccc(C=Cc3ccccc3)cc21 (stereo not drawn) [Example 148, 1-(2-hydroxy-2-methylpropyl)-N-((αR)-6-(4-oxo-3,4-dihydrophthalazin-1-yl)spiro[3.3]heptan-2-yl)-6-((E)-styryl)-1H-indazole-3-carboxamide] | 5.1 to 15
6 | CC(C)(O)Cn1nc(C(=O)NC2CC3(C2)CC(c2n[nH]c(=O)c4ccccc24)C3)c2ccc(C=CC3CC3)cc21 (stereo not drawn) [Example 149, 6-((E)-2-cyclopropylvinyl)-1-(2-hydroxy-2-methylpropyl)-N-((αR)-6-(4-oxo-3,4-dihydrophthalazin-1-yl)spiro[3.3]heptan-2-yl)-1H-indazole-3-carboxamide] | 5.1 to 15
7 | COc1cccc(-c2ccc3c(C(=O)NC4CC5(C4)CC(c4n[nH]c(=O)c6ccccc46)C5)nn(CC(C)(C)O)c3c2)n1 (stereo not drawn) [Example 150, 1-(2-hydroxy-2-methylpropyl)-6-(6-methoxypyridin-2-yl)-N-((αR)-6-(4-oxo-3,4-dihydrophthalazin-1-yl)spiro[3.3]heptan-2-yl)-1H-indazole-3-carboxamide] | 2.01 to 5
8 | CC(C)(O)Cn1nc(C(=O)NC2CC3(C2)CC(c2n[nH]c(=O)c4ccccc24)C3)c2ccc(/C=C\C3CC3)cc21 (stereo not drawn) [Example 151, 6-((Z)-2-cyclopropylvinyl)-1-(2-hydroxy-2-methylpropyl)-N-((αR)-6-(4-oxo-3,4-dihydrophthalazin-1-yl)spiro[3.3]heptan-2-yl)-1H-indazole-3-carboxamide] | 5.1 to 15
9 | CC(C)(O)Cn1nc(C(=O)N[C@H]2CC3(C2)C[C@H](c2n[nH]c(=O)c4ccccc42)C3)c2ccc(Br)cc21 (stereo partly drawn) [Example 152, 6-bromo-1-(2-hydroxy-2-methylpropyl)-N-((αR)-6-(4-oxo-3,4-dihydrophthalazin-1-yl)spiro[3.3]heptan-2-yl)-1H-indazole-3-carboxamide] | 2.01 to 5
10 | COc1ccc(-c2ccc3c(C(=O)NC4CC5(C4)CC(c4n[nH]c(=O)c6ccccc46)C5)nn(CC(C)(C)O)c3c2)cc1 (stereo not drawn) [Example 153, 1-(2-hydroxy-2-methylpropyl)-6-(4-methoxyphenyl)-N-((αR)-6-(4-oxo-3,4-dihydrophthalazin-1-yl)spiro[3.3]heptan-2-yl)-1H-indazole-3-carboxamide] | 2.01 to 5
11 | Cn1cc(-c2ccc3c(C(=O)NC4CC5(C4)CC(c4n[nH]c(=O)c6ccccc46)C5)nn(CC(C)(C)O)c3c2)nn1 (stereo not drawn) [Example 154, 1-(2-hydroxy-2-methylpropyl)-6-(1-methyl-1H-1,2,3-triazol-4-yl)-N-((αR)-6-(4-oxo-3,4-dihydrophthalazin-1-yl)spiro[3.3]heptan-2-yl)-1H-indazole-3-carboxamide] | 2.01 to 5
12 | Cc1noc(C)c1-c1ccc2c(C(=O)NC3CC4(C3)CC(c3n[nH]c(=O)c5ccccc35)C4)nn(CC(C)(C)O)c2c1 (stereo not drawn) [Example 155, 6-(3,5-dimethylisoxazol-4-yl)-1-(2-hydroxy-2-methylpropyl)-N-((αR)-6-(4-oxo-3,4-dihydrophthalazin-1-yl)spiro[3.3]heptan-2-yl)-1H-indazole-3-carboxamide] | 2.01 to 5
13 | CC(C)(O)Cn1nc(C(=O)NC2CC3(C2)CC(c2n[nH]c(=O)c4ccccc24)C3)c2ccc(-c3cccc(Cl)c3)cc21 (stereo not drawn) [Example 156, 6-(3-chlorophenyl)-1-(2-hydroxy-2-methylpropyl)-N-((αR)-6-(4-oxo-3,4-dihydrophthalazin-1-yl)spiro[3.3]heptan-2-yl)-1H-indazole-3-carboxamide] | 5.1 to 15
14 | COc1ccccc1-c1ccc2c(C(=O)NC3CC4(C3)CC(c3n[nH]c(=O)c5ccccc35)C4)nn(CC(C)(C)O)c2c1 (stereo not drawn) [Example 157, 1-(2-hydroxy-2-methylpropyl)-6-(2-methoxyphenyl)-N-((αR)-6-(4-oxo-3,4-dihydrophthalazin-1-yl)spiro[3.3]heptan-2-yl)-1H-indazole-3-carboxamide] | 0.2 to 2
15 | COc1cccc(-c2ccc3c(C(=O)NC4CC5(C4)CC(c4n[nH]c(=O)c6ccccc46)C5)nn(CC(C)(C)O)c3c2)c1 (stereo not drawn) [Example 158, 1-(2-hydroxy-2-methylpropyl)-6-(3-methoxyphenyl)-N-((αR)-6-(4-oxo-3,4-dihydrophthalazin-1-yl)spiro[3.3]heptan-2-yl)-1H-indazole-3-carobxamide] | 2.01 to 5
16 | CC(C)(O)Cn1nc(C(=O)NC2CC3(C2)CC(c2n[nH]c(=O)c4ccccc24)C3)c2ccc(-c3c(F)cccc3F)cc21 (stereo not drawn) [Example 159, 6-(2,6-difluorophenyl)-1-(2-hydroxy-2-methylpropyl)-N-((αR)-6-(4-oxo-3,4-dihydrophthalazin-1-yl)spiro[3.3]heptan-2-yl)-1H-indazole-3-carboxamide] | 2.01 to 5
17 | CC(C)(O)Cn1nc(C(=O)NC2CC3(C2)CC(c2n[nH]c(=O)c4ccccc24)C3)c2ccc(-c3ccccc3C#N)cc21 (stereo not drawn) [Example 160, 6-(2-cyanophenyl)-1-(2-hydroxy-2-methylpropyl)-N-((αR)-6-(4-oxo-3,4-dihydrophthalazin-1-yl)spiro[3.3]heptan-2-yl)-1H-indazole-3-carboxamide] | 0.2 to 2
18 | CC(C)(O)Cn1nc(C(=O)NC2CC3(C2)CC(c2n[nH]c(=O)c4ccccc24)C3)c2ccc(-c3cnoc3)cc21 (stereo not drawn) [Example 161, 1-(2-hydroxy-2-methylpropyl)-6-(isoxazol-4-yl)-N-((αR)-6-(4-oxo-3,4-dihydrophthalazin-1-yl)psiro[3.3]heptan-2-yl)-1H-indazole-3-carboxamide] | 5.1 to 15
19 | CC(C)(O)Cn1nc(C(=O)NC2CC3(C2)CC(F)(c2n[nH]c(=O)c4ccccc24)C3)c2ccccc21 (stereo not drawn) [Example 162, N-(6-fluoro-6-(4-oxo-3,4-dihydrophthalazin-1-yl)spiro[3.3]heptan-2-yl)-1-(2-hydroxy-2-methylpropyl)-1H-indazole-3-carboxamide] | 15.1 to 100
20 | CC(C)(O)Cn1nc(C(=O)NC2CC3(C2)CC(F)(c2n[nH]c(=O)c4ccccc24)C3)c2ccc(F)cc21 (stereo not drawn) [Example 163, 6-fluoro-N-(6-fluoro-6-(4-oxo-3,4-dihydrophthalazin-1-yl)spiro[3.3]heptan-2-yl)-1-(2-hydroxy-2-methylpropyl)-1H-indazole-3-carboxamide] | 15.1 to 100
21 | O=C(NC1CC2(C1)CC(F)(c1n[nH]c(=O)c3ccccc13)C2)c1cnn2ccccc12 (stereo not drawn) [Example 164, N-(6-fluoro-6-(4-oxo-3,4-dihydrophthalazin-1-yl)spiro[3.3]heptan-2-yl)pyrazolo[1,5-α]pyridine-3-carboxamide] | 15.1 to 100
22 | O=C(N[C@H]1CC2(C1)C[C@H](c1n[nH]c(=O)c3ccccc31)C2)c1cnn2cc(N3CCCC3=O)ccc12 (stereo partly drawn) [Example 165, N-((aR)-6-(4-oxo-3,4-dihydrophthalazin-1-yl)spiro[3.3]heptan-2-yl)-6-(2-oxopyrrolidin-1-yl)pyrazolo[1,5-a]pyridine-3-carboxamide] | 5.1 to 15
23 | O=C(NC1CC2(C1)CC(c1n[nH]c(=O)c3ccccc13)C2)c1cnn2cc(C3CC3)ccc12 (stereo not drawn) [Example 166, 6-cyclopropyl-N-((αR)-6-(4-oxo-3,4-dihydrophthalazin-1-yl)spiro[3.3]heptan-2-yl)pyrazolo[1,5-α]pyridine-3-carboxamide] | 0.2 to 2
24 | O=C(NC1CC2(C1)CC(c1n[nH]c(=O)c3ccccc13)C2)c1cnn2cc(-c3cnn(C(F)F)c3)ccc12 (stereo not drawn) [Example 167, 6-(1-(difluoromethyl)-1H-pyrazol-4-yl)-N-((αR)-6-(4-oxo-3,4-dihydrophthalazin-1-yl)spiro[3.3]heptan-2-yl)pyrazolo[1,5-α]pyridine-3-carboxamide] | 0.2 to 2
25 | N#Cc1ccc2c(C(=O)NC3CC4(C3)CC(c3n[nH]c(=O)c5ccccc35)C4)cnn2c1 (stereo not drawn) [Example 168, 6-cyano-N-((αR)-6-(4-oxo-3,4-dihydrophthalazin-1-yl)spiro[3.3]heptan-2-yl)pyrazolo[1,5-α]pyridine-3-carboxamide] | 15.1 to 100
26 | O=C(NC1CC2(C1)CC(c1n[nH]c(=O)c3ccccc13)C2)c1cnn2cc(-n3ccccc3=O)ccc12 (stereo not drawn) [Example 169, N-((αR)-6-(4-oxo-3,4-dihydrophthalazin-1-yl)spiro[3.3]heptan-2-yl)-6-(2-oxopyridin-1(2H)-yl)pyrazolo[1,5-α]pyridine-3-carboxamide] | 5.1 to 15
27 | Cn1cc(-c2ccc3c(C(=O)NC4CC5(C4)CC(c4n[nH]c(=O)c6ccccc46)C5)cnn3c2)cn1 (stereo not drawn) [Example 170, 6-(1-methyl-1H-pyrazol-4-yl)-N-((αR)-6-(4-oxo-3,4-dihydrophthalazin-1-yl)spiro[3.3]heptan-2-yl)pyrazolo[1,5-α]pyridine-3-carboxamide] | 0.2 to 2

— patent US9902702B2, “Spirocycloheptanes as inhibitors of rock” (BRISTOL-MYERS SQUIBB COMPANY, priority 2014, dated 2018)
